According to patent publication US20260285850A1, “SUBSTITUTED OXAZOLIDINONES AND IMIDAZOLINONES AS HERBICIDES” (FMC CORPORATION, priority 2023, published 2026):

Columns and labels:
Format in all cases: in vivo
[1] = tested on: barnyardgrass (Echinochloa crus-galli); assay: Test A preemergence soil spray, visual injury rating 0-100; conditions: 10 days
Summary of the method: (§1)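 Rating: visual, day 10, untreated plants as reference, 0 no effect to 100 full control. Plants were in loam-sand and were treated either preemergence via directed soil spray or postemergence at the one- to two-leaf stage.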

[2] = tested on: blackgrass (Alopecurus myosuroides); assay: as above; conditions: 10 days
Summary of the method: as §1

[3] = tested on: corn (Zea mays); assay: as above; conditions: 10 days
Summary of the method: as §1

[4] = tested on: green foxtail (Setaria viridis); assay: as above; conditions: 10 days
Summary of the method: as §1

[5] = tested on: kochia (Bassia scoparia); assay: as above; conditions: 10 days
Summary of the method: as §1

[6] = tested on: oat, wild (wild oat, Avena fatua); assay: as above; conditions: 10 days
Summary of the method: as §1

[7] = tested on: palmer (palmer amaranth, palmer pigweed, Amaranthus palmeri); assay: as above; conditions: 10 days
Summary of the method: as §1

[8] = tested on: ragweed (common ragweed, Ambrosia artemisiifolia); assay: as above; conditions: 10 days
Summary of the method: as §1

[9] = tested on: ryegrass, Italian (italian ryegrass, Lolium multiflorum); assay: as above; conditions: 10 days
Summary of the method: as §1

[10] = tested on: soybean (Glycine max); assay: as above; conditions: 10 days
Summary of the method: as §1

[11] = tested on: wheat (Triticum aestivum); assay: as above; conditions: 10 days
Summary of the method: as §1

[12] = tested on: barnyardgrass (Echinochloa crus-galli); assay: Test A postemergence application, visual injury rating 0-100
Summary of the method: as §1

[13] = tested on: blackgrass (Alopecurus myosuroides); assay: as above
Summary of the method: as §1

[14] = tested on: corn (Zea mays); assay: as above
Summary of the method: as §1

[15] = tested on: galium (catchweed bedstraw, Galium aparine); assay: as above; conditions: Postemergence, 16 g ai/ha, greenhouse 10 days; 0 no effect, 100 complete control
Summary of the method: as §1

[16] = tested on: green foxtail (Setaria viridis); assay: as above
Summary of the method: as §1

[17] = tested on: horseweed (Erigeron canadensis); assay: as above
Summary of the method: as §1

[18] = tested on: kochia (Bassia scoparia); assay: as above
Summary of the method: as §1

[19] = tested on: oat, wild (wild oat, Avena fatua); assay: as above
Summary of the method: as §1

[20] = tested on: palmer (palmer amaranth, palmer pigweed, Amaranthus palmeri); assay: as above
Summary of the method: as §1

[21] = tested on: ragweed (common ragweed, Ambrosia artemisiifolia); assay: as above
Summary of the method: as §1

[22] = tested on: ryegrass, Italian (italian ryegrass, Lolium multiflorum); assay: as above
Summary of the method: as §1

[23] = tested on: soybean (Glycine max); assay: as above
Summary of the method: as §1

[24] = tested on: wheat (Triticum aestivum); assay: as above
Summary of the method: as §1

[25] = tested on: barnyardgrass (Echinochloa crusgalli); assay: Test B flooded paddy test, visual plant response rating 0-100; conditions: 250 g ai/ha, Flood, applied to paddy water, evaluated after 13 days
Summary of the method: (§2)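 Visual evaluation after 13 days. Water-applied treatment, 3 cm flood depth held constant, plants at 2-leaf stage at treatment.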

[26] = tested on: ducksalad (Heteranthera limosa); assay: as above; conditions: 250 g ai/ha, Flood, applied to paddy water, evaluated after 13 days
Summary of the method: as §2

[27] = tested on: rice (Oryza sativa); assay: as above; conditions: 250 g ai/ha, Flood, applied to paddy water, evaluated after 13 days
Summary of the method: as §2

[28] = tested on: sedge, umbrella (small-flower umbrella sedge, Cyperus difformis); assay: as above; conditions: 250 g ai/ha, Flood, applied to paddy water, evaluated after 13 days
Summary of the method: as §2

[29] = 62 g ai/ha, 0 = no effect, 100 = complete control
[30] = 62 g ai/ha, postemergence, 10 days, 0 = no effect, 100 = complete control
[31] = Postemergence, 16 g ai/ha, greenhouse 10 days, 0 no effect, 100 complete control

`CC1(C(=O)NC2CC=C(C(=O)OCC(F)F)C2)CN(c2cc(Cl)cc(Cl)c2)C(=O)O1` (stereo not drawn) [Compound 154] was tested, and the “Barnyardgrass plant response rating” value ([1]; 16 g ai/ha, 0 to 100 scale) was 30, the “Barnyardgrass plant response rating (0-100)” value [1, 29] was 90 and the “Blackgrass plant response rating” value ([2]; 16 g ai/ha, 0 to 100 scale) was 0. For the same compound, the “Blackgrass plant response rating (0-100)” value [2, 29] was 0, the “Corn plant response rating” value ([3]; 16 g ai/ha, 0 to 100 scale) was 20 and the “Corn plant response rating (0-100)” value [3, 29] was 30. For the same compound, the “Foxtail, Green plant response rating” value ([4]; 16 g ai/ha, 0 to 100 scale) was 40, the “Foxtail, Green plant response rating (0-100)” value [4, 29] was 90 and the “Kochia plant response rating” value ([5]; 16 g ai/ha, 0 to 100 scale) was 20. The “Kochia plant response rating (0-100)” value [5, 29] was 90, the “Oat, Wild plant response rating” value ([6]; 16 g ai/ha, 0 to 100 scale) was 0 and the “Oat, Wild plant response rating (0-100)” value [6, 29] was 20. For the same compound, the “Pigweed, Palmer plant response rating” value ([7]; 16 g ai/ha, 0 to 100 scale) was 60, the “Pigweed, Palmer plant response rating (0-100)” value [7, 29] was 100 and the “Ragweed plant response rating” value ([8]; 16 g ai/ha, 0 to 100 scale) was 0. For the same compound, the “Ragweed plant response rating (0-100)” value [8, 29] was 50, the “Ryegrass, Italian plant response rating” value ([9]; 16 g ai/ha, 0 to 100 scale) was 30 and the “Ryegrass, Italian plant response rating (0-100)” value [9, 29] was 80. For the same compound, the “Soybean plant response rating” value ([10]; 16 g ai/ha, 0 to 100 scale) was 0, the “Soybean plant response rating (0-100)” value [10, 29] was 50 and the “Wheat plant response rating” value ([11]; 16 g ai/ha, 0 to 100 scale) was 10. The “Wheat plant response rating (0-100)” value [11, 29] was 60, the “Barnyardgrass plant response rating (0-100)” value [12, 30] was 100 and the “Barnyardgrass plant response rating (0 to 100 scale)” value [12, 31] was 100. For the same compound, the “Blackgrass plant response rating (0-100)” value [13, 30] was 0, the “Blackgrass plant response rating (0 to 100 scale)” value [13, 31] was 0 and the “Corn plant response rating (0-100)” value [14, 30] was 100. For the same compound, the “Corn plant response rating (0 to 100 scale)” value [14, 31] was 100, the “Galium plant response rating (0 to 100 scale)” value [15] was 50 and the “Foxtail, Green plant response rating (0-100)” value [16, 30] was 90. The “Foxtail, Green plant response rating (0 to 100 scale)” value [16, 31] was 80, the “Horseweed plant response rating (0-100)” value [17, 30] was 70 and the “Horseweed plant response rating (0 to 100 scale)” value [17, 31] was 70. For the same compound, the “Kochia plant response rating (0-100)” value [18, 30] was 90, the “Kochia plant response rating (0 to 100 scale)” value [18, 31] was 90 and the “Oat, Wild plant response rating (0-100)” value [19, 30] was 90. For the same compound, the “Oat, Wild plant response rating (0 to 100 scale)” value [19, 31] was 20, the “Pigweed, Palmer plant response rating (0-100)” value [20, 30] was 90 and the “Pigweed, Palmer plant response rating (0 to 100 scale)” value [20, 31] was 90. For the same compound, the “Ragweed plant response rating (0-100)” value [21, 30] was 90, the “Ragweed plant response rating (0 to 100 scale)” value [21, 31] was 40 and the “Ryegrass, Italian plant response rating (0-100)” value [22, 30] was 80. The “Ryegrass, Italian plant response rating (0 to 100 scale)” value [22, 31] was 60, the “Soybean plant response rating (0-100)” value [23, 30] was 60 and the “Soybean plant response rating (0 to 100 scale)” value [23, 31] was 60. The “Wheat plant response rating (0-100)” value [24, 30] was 90, the “Wheat plant response rating (0 to 100 scale)” value [24, 31] was 70 and the “Plant response rating, Barnyardgrass (0 to 100 scale, 0 is no effect and 100 is complete control)” value [25] was 98. For the same compound, the “Plant response rating, Ducksalad (0 to 100 scale, 0 is no effect and 100 is complete control)” value [26] was 70, the “Plant response rating, Rice (0 to 100 scale, 0 is no effect and 100 is complete control)” value [27] was 95 and the “Plant response rating, Sedge, Umbrella (0 to 100 scale, 0 is no effect and 100 is complete control)” value [28] was 95.
